Entries after “also recorded” stand apart in the source; their conditions may differ. Where two headings read alike, the source gives them in different places. Peptide text beside a SMILES is read from it.
What was measured:
P. aeruginosa K385 = details: cited from earlier work
[1] = tested on: P. aeruginosa strain K385; assay: microbe, parasite or virus in culture; format: cell-based; details: Pseudomonas aeruginosa, K385, 20 h, read-out: growth inhibition in the absence of ciprofloxacin
P. aeruginosa K799/61 [2] = assay: Susceptibility to tetracycline and ciprofloxacin, pump deficient mutant K799/61
[3] = tested on: wild-type strains of P. aeruginosa; details: cited from earlier work
mexA-mexB-oprM = details: insertion mutagenesis; cited from earlier work
P. aeruginosa K799/61 [4] = details: mutant strain k799/61; cited from earlier work
E. coli HN818 = assay: Susceptibility to acridine orange, AcrAB pump deficient strain HN818; format: cell-based; details: acridine orange alone
Excerpt: The effect of L-phenylalanyl-L-arginyl-β-naphthylamide was also studied on an AcrAB pump deficient mutant of E. coli which was obtained by transposon mutagenesis in the laboratory of H. Nikaido.

[5] = tested on: P. aeruginosa PAO1, PAO4098E, K385 and 799/61; assay: Tetracycline accumulation in four P. aeruginosa strains (basal level); format: cell-based, Pseudomonas aeruginosa
Excerpt: Alternatively, efflux pumps are identified by their ability to lower the accumulation of a substrate in a cell. Efflux pumps involved in drug resistance can be identified because they confer resistance to antibiotics. Efflux pumps involved in multidrug resistance in bacteria usually give an intermediate level of resistance to a broad range of antibiotics. Specific mechanism of resistance, including specific efflux pumps, give a much higher level of resistance to one antibiotic or a group of structurally related antibiotics. […] To identify whether an efflux pump is involved in antibiotic resistance in a given strain, accumulation experiments should be performed using antibiotics that it is suspected are exported by the efflux pump. The protein pattern in electrophoresis of cytoplasmic membrane proteins should be studied to identify the overexpression of a protein or the appearance of a new band in the protein pattern using gel electrophoresis. For Gram-negative bacteria, the outer membrane proteins should also be studied. Since efflux pumps are a common occurrence in most bacteria, the basal level of antibiotic susceptibility of a wild type might be caused by naturally occurring efflux pumps. […] Mutants that overexpress the pumps can be isolated using antibiotic-containing media. These mutants will be more resistant to antibiotics and will accumulate lower levels of antibiotics. […]

[6] = tested on: P. aeruginosa strain 799/61; assay: [3H]-tetracycline accumulation assay, strain 799/61 without efflux pumps; format: cell-based, Pseudomonas aeruginosa; details: CCCP added
Procedure: A tetracycline accumulation assay was set up to measure the activity of efflux pumps in P. aeruginosa. The assay measures the accumulation of [3H]-tetracycline in bacteria and was optimized for measuring tetracycline accumulation in P. aeruginosa.
A new tetracycline steady state equilibrium is reached when CCCP is added to the cell suspension and pH equilibrates in both sides of the membrane.

AcrAE efflux system = details: cited from earlier work

Compound: c1ccc(-c2ccccn2)nc1 [2,2'-dipyridyl]
- susceptibility associated with production of a 50-kDa outer membrane protein (P. aeruginosa K385): decreased susceptibility

Compound: N=C(N)NCCC[C@H](NC(=O)[C@@H](N)Cc1ccccc1)C(=O)Nc1ccc2ccccc2c1 [L-phenylalanyl-L-arginyl-β-naphthylamide] (HELM PEPTIDE1{F.R.[c1ccc2cc(N[*:1])ccc2c1]}$$$$V2.0)
- inhibition at 10 µg/mL [1]: 1%
- effect on susceptibility to tetracycline and ciprofloxacin (P. aeruginosa K799/61 [2]): no effect

Compound: CCn1cc(C(=O)O)c(=O)c2cc(F)c(N3CCNCC3)cc21 [norfloxacin]
- efflux by wild-type strains [3]: very effectively

Compound: O=C(N[C@H](CO)[C@H](O)c1ccc([N+](=O)[O-])cc1)C(Cl)Cl [chloramphenicol]
- efflux by wild-type strains [3]: very effectively
- susceptibility of the strain with inactivated operon (mexA-mexB-oprM): almost as susceptible as E. coli
- capability of pumping out (P. aeruginosa K799/61 [4]): essentially incapable of pumping out

Compound: CN(C)c1ccc2cc3ccc(N(C)C)cc3nc2c1 [acridine orange]
- susceptibility of HN818 to acridine orange versus parent strain (E. coli HN818): more susceptible to acridine orange than the parent strain

Compound: CN(C)C1C(=O)C(C(N)=O)=C(O)C2(O)C(=O)C3=C(O)c4c(O)cccc4C(C)(O)C3CC12 (stereo not shown) [tetracycline]
- tetracycline accumulation, efflux pump overproducer strains ([5]; PAO4098E and K385): accumulated lower amounts of tetracycline
- intracellular accumulation of tetracycline, strain 799/61 versus others ([5]; strain 799/61): highest internal concentration; also recorded: accumulated more tetracycline than the wild type PAO1
- efflux by wild-type strains [3]: very effectively
- susceptibility of the strain with inactivated operon (mexA-mexB-oprM): almost as susceptible as E. coli
- capability of pumping out (P. aeruginosa K799/61 [4]): essentially incapable of pumping out

Compound: N#CC(C#N)=NNc1cccc(Cl)c1 [CCCP, carbonyl cyanide m-chlorophenylhydrazone]
- tetracycline accumulation [6]: lowered the tetracycline accumulation

Compound: acriflavine
- steady-state accumulation of acriflavine (AcrAE efflux system; acrA mutant vs wild type): increases at least fivefold
- steady-state accumulation of acriflavine (AcrAE efflux system; wild-type acrA+ strain): extremely low

Source: patent US5989832A, “Method for screening for non-tetracycline efflux pump inhibitors” (Microcide Pharmaceuticals, Inc., priority 1995, dated 1999)
